Experimental findings from patent US20070232575A1, “Treatment of Pulmonary Artery Hypertension with Dhea, Dheas, Dhea Analogs, or Dhea Derivatives” (priority 2004, published 2007) are described below.

One data set deals with systemic circulation. Nature of the data set: Systemic circulation and cardiac function (systemic blood pressure, heart rate, cardiac output). How it is done:
To determine the effect of the chronic hypoxia treatment-induced CH-PAH and to determine the effect of DHEA administration on PAP, the following PAP measurement method was used. Rats were anaesthetized with ketamine 50 mg/kg and xylazine 10 mg/kg by i.p. injection. Mean PAP was measured with 2.5-F catheters inserted into the right jugular vein in closed-chest rats (Bonnet, S., et al. (2002) Cardiovasc. Res. 53, 1019-1028, which is incorporated by reference herein in its entirety). The effect of DHEA on the systemic blood pressure was controlled by another catheter placed into the left carotid artery. Throughout all the experiments, heart rate and oxygen saturation were monitored. Acute hypoxic stress with fraction of inspired O2 of 10% were applied by administration of an air plus nitrogen gas mixture. The fraction of inspired O2 was monitored with an oxygen analyzer (Servomex, Crowborough, Great Britain), and the effects on the PAP were measured over a 10-15 minute period.
Echocardiography measurements were also performed to determine differences between the treated and control rats. To perform this procedure, the rats were first anaesthetized. After thorax epilation, the animals were placed in the left lateral decubitus position. Resting echocardiography measurements were performed at ambient conditions by using a SONOS 5500 (Philips) echocardiograph and a 12-MHz sector scare transducer. Right and left ventricle wall thickness was measured on M-mode tracings following the recommendations of the American Society of Echocardiology as described by Jones et al. ((2002) Am. J. Physiol. 283, H364-H371). Right cardiac output was evaluated by measuring the electrical R-R delay, the PA diameter, and the velocity time integral (VTI) of PA flux.

The subject of data set [1] is BKCa. As to the kind of experiment: Immunoblot of BKCa in arterial pulmonary extracts. The format is in vivo, rat. The settings on record: oral DHEA 3 weeks. How it is done: The level of expression of BKCa was examined using an immunoblot. Arterial pulmonary extracts were prepared from a pool of eight rats per sample and condition. Three separate samples were taken for each condition. The samples were ground in liquid N2, homogenized in RIPA buffer (1% Nonidet P-40/0.5% deoxycholate sodium/0.1% SDS/10 μg/ml aprotinin/100 μg/ml leupeptin/1 mM 4-(2-aminoethyl)benzenesulfonylfluoride in PBS) with a polytron (Bioblock Scientific), and then centrifuged. The extract was verified by Coomassie blue staining. Each sample was loaded at 10 μg in 7.5% resolving acrylamide gel and electrotransferred on to a nylon membrane. Immunoblot analyses used rabbit mAb against rat BKCa (Alomone Labs, Jerusalem, no. APC-021 at 1/500) and mouse monoclonal anti-actin (Santa Cruz Biotechnology, clone C-2 at 1/500). […] All experiments were repeated two or three times. Quantification of the data was performed using the SCION IMAGE program from the National Institutes of Health.
(Immunoblotting shows a protein as a band on a membrane.)

Data set [2] has as its system chronic hypoxic-pulmonary artery hypertension (CH-PAH). As to the kind of experiment: Echocardiography: right ventricular (RV) wall thickness in CH rats. The class given is in vivo, rat. How it is done:
The rat model experiments were performed as follows. Adult male Wistar rats (220-240 g) were randomized into five groups. […] Intravascular administration was performed via the catheter inserted in the right jugular vein.
To perform this procedure, the rats were first anaesthetized.

Data set [3] addresses T1, BKCa (Rattus norvegicus, UniProt Q62976).
T1 construct: from tissue; host or cells: intrapulmonary artery rings of adult male Wistar rats
As to the kind of experiment: IbTx-induced contraction of IPA rings from CH-DHEA rats. The class given is in vivo. The settings on record: for increase of tension induced by IbTx: rings from CH-DHEA rats compared with control and CH rats. How it is done:
Statistical analyses for the experiments described herein were performed by using NCSS 5.0 software (NCSS, Kaysville, Utah). Values were expressed as mean±SEM. Contractions were expressed as a percentage of K^+-rich (80 mM) solution-induced contractions. Intergroup differences were assessed by a repeated-measures ANOVA or factorial ANOVA, as appropriate. Post hoc analysis used a Fisher multiple comparison test. For some comparisons, the Pearson product moment correlation coefficient between pairs of variables was used as indicated (ORIGIN 5.0, OriginLab, Northampton, Mass.). Regarding the number of experiments, (n) refers to the number of rings or cells and (N) to the number of animals. Differences were considered significant when P<0.05.
The heart and lungs were removed and intrapulmonary arteries (IPAs) (150-300 μm of internal diameter) were then dissected. The adventitial and intimal layers were removed. For contraction experiments, rings (3 mm in length) were prepared.
CH induces remodeling of the intrapulmonary artery (IPA) in the rat model of CH-PAH. To examine the changes in the IPA wall upon CH exposure, the following method was performed. Isometric contractions were measured in rings from IPAs that were mounted in vertical 5-ml organ baths of a computerized isolated organ bath system (IOX, EMKA Technologies, Paris), as described in Bonnet, S., et al. (2001, Am. J. Physiol. 281, L183-L192, which is incorporated by reference herein in its entirety). Baths were filled with Krebs-Henseleit solution (composition in mM: 118.4 NaCl/4.7 KCl/2.5 CaCl2/1.2 MgSO4/1.2 KH2PO4/25 NaHCO3/11.1 D-glucose, pH 7.4). The baths were maintained at 37° C. and bubbled with a 95% O2/5% CO2 gas mixture. […] A concentration increment was made once the maximal contractile effect of the preceding concentration had been recorded.

For the next data set, the system named is acute hypoxic challenge. Nature of the data set: Pressure response of the PA to acute hypoxic challenge. The format is in vivo, rat. The settings on record: 3 weeks of hypoxia under DHEA treatment; response disappeared without DHEA.
Setting [4] is: one week oral DHEA treatment in CH rats.

Each structure is given as a SMILES string. Entries after “also recorded” stand apart in the source; their conditions may differ.

T1 sequence (Q62976 whole entry): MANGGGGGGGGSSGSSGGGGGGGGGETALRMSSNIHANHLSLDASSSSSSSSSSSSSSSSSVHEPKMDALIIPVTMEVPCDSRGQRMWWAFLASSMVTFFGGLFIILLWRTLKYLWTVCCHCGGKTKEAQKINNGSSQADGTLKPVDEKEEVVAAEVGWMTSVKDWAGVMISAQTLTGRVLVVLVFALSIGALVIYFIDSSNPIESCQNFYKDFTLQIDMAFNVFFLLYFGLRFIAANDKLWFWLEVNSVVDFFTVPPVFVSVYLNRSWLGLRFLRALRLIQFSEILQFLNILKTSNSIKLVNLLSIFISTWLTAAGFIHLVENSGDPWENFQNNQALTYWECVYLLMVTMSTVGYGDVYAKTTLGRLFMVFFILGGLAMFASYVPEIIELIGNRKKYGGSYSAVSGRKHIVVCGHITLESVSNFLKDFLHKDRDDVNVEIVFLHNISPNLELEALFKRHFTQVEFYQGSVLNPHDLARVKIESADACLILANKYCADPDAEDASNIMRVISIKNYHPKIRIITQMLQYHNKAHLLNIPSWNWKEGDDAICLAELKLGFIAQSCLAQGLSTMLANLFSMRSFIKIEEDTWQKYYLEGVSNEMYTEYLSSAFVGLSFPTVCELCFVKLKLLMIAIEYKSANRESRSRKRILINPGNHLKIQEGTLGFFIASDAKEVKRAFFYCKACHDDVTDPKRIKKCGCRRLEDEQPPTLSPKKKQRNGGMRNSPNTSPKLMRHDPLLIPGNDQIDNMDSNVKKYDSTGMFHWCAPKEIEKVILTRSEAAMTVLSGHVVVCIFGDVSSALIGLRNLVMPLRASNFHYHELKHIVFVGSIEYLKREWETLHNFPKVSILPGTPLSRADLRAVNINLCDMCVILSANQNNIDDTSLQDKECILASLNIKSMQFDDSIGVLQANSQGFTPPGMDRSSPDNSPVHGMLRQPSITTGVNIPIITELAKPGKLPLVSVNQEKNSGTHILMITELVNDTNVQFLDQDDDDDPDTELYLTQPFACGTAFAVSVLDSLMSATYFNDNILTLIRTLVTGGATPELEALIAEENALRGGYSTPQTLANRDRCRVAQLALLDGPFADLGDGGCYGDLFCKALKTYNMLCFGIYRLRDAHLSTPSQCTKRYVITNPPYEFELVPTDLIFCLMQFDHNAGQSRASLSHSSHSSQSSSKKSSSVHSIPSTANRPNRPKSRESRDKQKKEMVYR
T1 sequence (P97678 whole entry partner): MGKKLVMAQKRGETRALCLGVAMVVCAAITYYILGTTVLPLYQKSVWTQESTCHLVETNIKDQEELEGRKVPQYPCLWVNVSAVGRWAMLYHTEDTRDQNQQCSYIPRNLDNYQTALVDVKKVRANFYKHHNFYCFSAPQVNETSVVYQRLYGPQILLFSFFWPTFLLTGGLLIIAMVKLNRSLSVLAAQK
Description for acute hypoxic challenge: To determine the effect of the chronic hypoxia treatment-induced CH-PAH and to determine the effect of DHEA administration on PAP, the following PAP measurement method was used. Rats were anaesthetized with ketamine 50 mg/kg and xylazine 10 mg/kg by i.p. injection. […] The effect of DHEA on the systemic blood pressure was controlled by another catheter placed into the left carotid artery. Throughout all the experiments, heart rate and oxygen saturation were monitored. Acute hypoxic stress with fraction of inspired O2 of 10% were applied by administration of an air plus nitrogen gas mixture. The fraction of inspired O2 was monitored with an oxygen analyzer (Servomex, Crowborough, Great Britain), and the effects on the PAP were measured over a 10-15 minute period.

As for `C[C@]12CC[C@H](O)CC1=CC[C@@H]1[C@@H]2CC[C@]2(C)C(=O)CC[C@@H]12` [DHEA, dehydroepiandrosterone], the cardiac output result in the data set with systemic circulation (setting [4]) was “did not affect”; with systemic circulation (oral DHEA 3 weeks) it was “No significant changes”. Also, the heart rate result in the data set with systemic circulation (setting [4]) was “did not affect”; in the data set with systemic circulation (oral DHEA 3 weeks) it was “No significant changes”. In addition, the systemic pressure entry in the data set on systemic circulation (setting [4]) is “did not affect”. Also, the cardiac function entry in the data set with systemic circulation (oral DHEA 3 weeks, CH-DHEA rats (FIG. 1 D and E)) is “did not affect”. Also, the “systemic blood pressure / systemic circulation” value in the data set with systemic circulation (oral DHEA 3 weeks, control, DHEA treated and untreated groups) is “No significant changes; also recorded: did not affect”. For the same molecule, the “effect on CH-induced decrease of BKCa protein” value in the data set on BKCa [1] was “This decrease was prevented; also recorded: up-regulation”. In the data set on BKCa [1] (three separate comparisons), the “immunoreactive signal of BKCa-subunit, CH-DHEA higher than CH” value is reported as 48.6±5.6%. The RV wall thickness is reported as 1.6±0.03 mm in data set [2] (CH-DHEA rats, oral DHEA during 3 wk hypoxia, untreated CH 2.74±0.5) and 1.91±0.2 mm in data set [2] (rats 3 weeks in CH, oral DHEA during the last week, no DHEA 2.97±0.4). The “RV wall thickness, CH-DHEA vs control rats” value in data set [2] (after 1 or 2 wk of hypoxia exposure with oral DHEA) was “no difference”. Besides, the “effect on RV wall thickness / right ventricle hypertrophy (prevention)” value in data set [2] (oral DHEA for 3 weeks during chronic hypoxia) is on record as “significant preventive effect; also recorded: decreased; also recorded: almost entirely prevent”. The “effect on RV wall thickness” value in data set [2] (oral DHEA, normoxic rats) was “no effect”. For the same molecule, the entries for the “increase of tension induced by IbTx” value on BKCa [3] (100 nM IbTx) and on BKCa [3] (300 nM IbTx) were 52% and 55%, respectively. Further, the “sensitivity/reactivity of IPA rings to IbTx” value at BKCa [3] (rings from CH-DHEA rats vs CH rats) is on record as “increase the sensitivity for IbTx; also recorded: increase in the IbTx response; also recorded: higher reactivity to IbTx”. Moreover, the “pressure response to an acute hypoxic challenge” value in the data set on acute hypoxic challenge was “restored”.
